# “Also recorded” adds a separate entry of the source.
# Columns and labels:
# Type in all cases: cell-based, human
# IRF-1 GAS = test: EMSA of IRF-1 GAS binding complexes, nuclear extracts of RSV-infected A549 cells; settings: RSV 6 hours, 400 μM
# Method: Electrophoretic mobility shift assay (EMSA): Nuclear extracts of uninfected and infected A549 cells were prepared using hypotonic/nonionic detergent lysis, as previously described (20). Proteins were normalized by protein assay (Protein Reagent, Bio-Rad, Hercules, Calif.) and used to bind to a duplex oligonucleotide corresponding to the IRF-1 gamma interferon activated sequence (GAS) and IRF-7 ISRE, whose sequences are shown below.
# (§1) DNA-binding reactions contained 10-15 μg nuclear proteins, 5% glycerol, 12 mM HEPES, 80 mM NaCl, 5 mM DTT, 5 mM Mg2Cl, 0.5 mM EDTA, 1 μg of poly dI-dC and 40,000 cpm of ^32P-labeled double-stranded oligonucleotide in a total volume of 20 μl. The nuclear proteins were incubated with the probe for 15 minutes at room temperature and then fractionated by 4% nondenaturing polyacrylamide gels (PAGE) in 0.5× TBE buffer (22 mM Tris-HCl, 22 mM boric acid, 0.25 MM EDTA, pH 8), at 120 volts. After electrophoretic separation, gels were dried and exposed for autoradiography using Kodak XAR film at −70° C. using intensifying screens. In the gel mobility supershift, commercial antibodies against specific transcription factors were added to the binding reactions and incubated on ice for one hour prior to fractionation on 6% PAGE.
# IRF-1 = test: Western blot of IRF-1 in total cell lysates of RSV-infected A549 cells; settings: whole cell extracts, RSV 12 hours, 400 μM
# Method: (§2) Western Immunoblot. Total cell lysates and cytoplasmic and nuclear proteins were prepared as previously described, fractionated by SDS-PAGE and transferred to PVDF membrane (20). Membranes were blocked with 5% albumin in TBS-Tween and incubated overnight with a rabbit polyclonal antibody to IRF-1, -3 and -7 (Santa Cruz Biotech, Santa Cruz, Calif.). For secondary detection, a horseradish-coupled anti-rabbit or anti-mouse antibody was used in the enhanced chemiluminescence assay (Amersham Pharmacia Biotec, Arlington Heights, Ill.).
# IRF-3 = test: Western blot of IRF-3 in total cell lysates of RSV-infected A549 cells; settings: whole cell extracts, RSV 12 hours, 400 μM
# Method: as §2
# β-actin = β-actin mRNA (Northern blot) in A549 cells; settings: 400 μM, compared to untreated cells
# Method: Northern Blot. Total RNA was extracted from control and infected A549 cells by the acid guanidium thiocyanate-phenol chloroform method (18). Twenty micrograms of RNA were fractionated on a 1.2% agarose-formaldehyde gel, transferred to nylon membranes and hybridized to a radiolabeled RANTES, IRF-1, -3 and -7 cDNAs, as previously described (19). Hybridization temperature for all probes was 55° C. After washing, membranes were exposed for autoradiography using Kodak XAR film at −70° C. using intensifying screens. After exposure, membranes were stripped and rehybridized with a β-actin probe.
# RANTES ISRE = test: EMSA of RANTES ISRE binding complexes, nuclear extracts of RSV-infected A549 cells; settings: RSV 12 hours, 400 μM
# Method: Electrophoretic mobility shift assay (EMSA): Nuclear extracts of uninfected and infected A549 cells were prepared using hypotonic/nonionic detergent lysis, as previously described (20). Proteins were normalized by protein assay (Protein Reagent, Bio-Rad, Hercules, Calif.) and used to bind to a duplex oligonucleotide corresponding to the RANTES ISRE, whose sequences is shown below:
# as §1, with “dithiothreitol (DTT),” for “DTT,”, “6%” for “4%”, “in” for “in 0.5×”, “mM” for “MM”, “8).” for “8), at 120 volts.”, “screens.” for “screens. In the gel mobility supershift, commercial antibodies against specific transcription factors were added to the binding reactions and incubated on ice for one hour prior to fractionation on 6% PAGE.”
# RANTES = test: RSV-induced RANTES secretion in SAE cells (ELISA)
# Method: Cell culture and infection of epithelial cells with RSV. A549, human alveolar type II-like epithelial cells (ATCC, Manassas, Va.), were maintained in F12K medium containing 10% (v/v) fetal bovine serum (FBS), 10 mM glutamine, 100 IU/ml penicillin and 100 μg/ml streptomycin. Small alveolar epithelial cells (SAE) were obtained from Clonetics (San Diego, Calif.) and grown according to the company instructions. Cell monolayers were infected with RSV at multiplicity of infection (MOI) of 1 (unless otherwise stated), as described (17). An equivalent amount of a 20% sucrose solution was added to uninfected A549 cells, as a control. For the antioxidant experiments, cells were pretreated with the antioxidants for one hour and then infected in the presence of the antioxidants. Since BHA was diluted in ethanol, equal amounts of ethanol were added to untreated cells, as a control. Total number of cells, cell viability and viral replication, following antioxidant treatment, were measured by trypan blue exclusion and by plaque assay, respectively. RANTES ELISA. Immunoreactive RANTES was quantitated by a double antibody ELISA kit (DuoSet, R&D Systems, Minneapolis, Minn.) following the manufacturer's protocol.
# ROS = test: H2O2-induced ROS production in A549 cells (DCF oxidation); settings: 200 μM H2O2, 400 μM BHA
# Method: Assesment of intracellular ROS generation. A549 cells were grown in 96-well tissue culture plates and infected with RSV, at 0.1, 0.5 and 1 multiplicity of infection (MOI). At different times post-infection, cells were washed with Hank's Balanced Salt Solution (HBSS) and loaded with 10 μM 2,7 dichlorofluorescein diacetate (DCF-DA) in HBSS medium containing 25 mM HEPES, pH 7.4, for 30 minutes at 37° C. The cells were then washed twice and fluorescence intensity was determined at 485 nm excitation and 590 nm emission, using an automated fluorescence reader (Flurocount, Hewlett-Packard Instruments, IL). For the experiments in which H2O2 was used as a stimulus for ROS production, cells were preloaded with […] DCF-DA for 30 minutes, washed and then fluorescence intensity was measured at different times following addition of H2O2. Measurements were performed in triplicate and results expressed as fluorescence mean±S.D. of n=3 independent experiments.
smiles,measurement,setting,value
"COc1ccc(O)c(C(C)(C)C)c1 [BHA, butylated hydroxyanisol]",RSV-induced STAT binding to the IRF-1 GAS,IRF-1 GAS,completely abolished
same,RSV-induced IRF-1 protein synthesis,IRF-1,almost completely abolished
same,RSV-induced IRF-3 mobility shift,IRF-3,almost completely abolished
same,levels of the housekeeping gene β-actin,β-actin,does not affect; also recorded: not systematically reduced
same,RSV-induced RANTES ISRE binding,RANTES ISRE,completely abolished
same,"effectiveness in reducing RSV-induced RANTES secretion, compared among the antioxidants",RANTES,most effective
same,RSV-induced RANTES production,"RANTES; 400 μM, 24 hours, ELISA",significantly reduced
same,H2O2-induced ROS production,ROS,almost completely inhibited
